Measured values from ChEMBL document CHEMBL1201862, “PubChem BioAssay data set” (2004).
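Compound exposure: 48 hours, 5 concentrations, 96-well plates. GI50 = concentration required for 50% inhibition of growth.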 Activity calls are given as the source filed them. Cut-off read from the data, not from the text of the source: active = GI50 up to about 1.1 µM and inactive = higher.

Key:
Experiment in all cases: inhibition of tumour cell growth, NCI panel, 48 h
786-0 = test system: 786-0
U-251 = test system: U-251
NCI-H460 = test system: NCI-H460
OVCAR-4 = test system: OVCAR-4
PC-3 = test system: PC-3
COLO 205 = test system: COLO 205
HOP-92 = test system: HOP-92
IGROV-1 = test system: IGROV-1
HCT-116 = test system: HCT-116
SW-620 = test system: SW-620
CCRF-CEM = test system: CCRF-CEM
SK-MEL-5 = test system: SK-MEL-5
HOP-62 = test system: HOP-62
SK-MEL-2 = test system: SK-MEL-2
T47D = test system: T47D
SNB-75 = test system: SNB-75
ACHN = test system: ACHN
K562 = test system: K562
HCC 2998 = test system: HCC 2998
MDA-N = test system: MDA-N
MDA-MB-231 = test system: MDA-MB-231
MDA-MB-435 = test system: MDA-MB-435
BT-549 = test system: BT-549
KM12 = test system: KM12
OVCAR-5 = test system: OVCAR-5
Malme-3M = test system: Malme-3M
HT-29 = test system: HT-29
TK-10 = test system: TK-10
NCI/ADR-RES = test system: NCI/ADR-RES
RXF 393 = test system: RXF 393
DU-145 = test system: DU-145
UACC-257 = test system: UACC-257
SK-OV-3 = test system: SK-OV-3
RPMI-8226 = test system: RPMI-8226
SF-539 = test system: SF-539
UO-31 = test system: UO-31
A549 = test system: A549
SF-268 = test system: SF-268
SR = test system: SR
LOX IMVI = test system: LOX IMVI
OVCAR-8 = test system: OVCAR-8
NCI-H522 = test system: NCI-H522
Hs-578T = test system: Hs-578T
MOLT-4 = test system: MOLT-4
SK-MEL-28 = test system: SK-MEL-28
HCT-15 = test system: HCT-15
UACC-62 = test system: UACC-62
MCF7 = test system: MCF7
SF-295 = test system: SF-295
A498 = test system: A498
OVCAR-3 = test system: OVCAR-3
M14 = test system: M14
NCI-H226 = test system: NCI-H226
NCI-H23 = test system: NCI-H23
SN12C = test system: SN12C
EKVX = test system: EKVX
HL-60 = test system: HL-60
SNB-19 = test system: SNB-19
CAKI-1 = test system: CAKI-1

C=C1CCC2C(C)(CO)C(O)CCC2(C)C1C/C=C1\C(=O)OCC1O (stereo unspecified)
GI50 (786-0): 5.4 µM (inactive) | GI50 (U-251): 11.1 µM (inactive) | GI50 (NCI-H460): 21.2 µM (inactive) | GI50 (OVCAR-4): 11.1 µM (inactive) | GI50 (PC-3): 20.1 µM (inactive) | GI50 (COLO 205): 14.8 µM (inactive) | GI50 (HOP-92): 27.8 µM (inactive) | GI50 (IGROV-1): 18.2 µM (inactive) | GI50 (HCT-116): 14.7 µM (inactive) | GI50 (SW-620): 9.71 µM (inactive) | GI50 (CCRF-CEM): 3.87 µM (inactive) | GI50 (SK-MEL-5): 14.1 µM (inactive) | GI50 (HOP-62): 28.2 µM (inactive) | GI50 (SK-MEL-2): 15.2 µM (inactive) | GI50 (T47D): 24.7 µM (inactive) | GI50 (SNB-75): 15.4 µM (inactive) | GI50 (ACHN): 29 µM (inactive) | GI50 (K562): 3.24 µM (inactive) | GI50 (HCC 2998): 22.5 µM (inactive) | GI50 (MDA-N): 9.31 µM (inactive) | GI50 (MDA-MB-231): 26.4 µM (inactive) | GI50 (MDA-MB-435): 10.3 µM (inactive) | GI50 (BT-549): 7.53 µM (inactive) | GI50 (KM12): 14.1 µM (inactive) | GI50 (OVCAR-5): 17.1 µM (inactive) | GI50 (Malme-3M): 15.6 µM (inactive) | GI50 (HT-29): 5.28 µM (inactive) | GI50 (TK-10): 52.8 µM (inactive) | GI50 (NCI/ADR-RES): 25 µM (inactive) | GI50 (RXF 393): 18.7 µM (inactive) | GI50 (DU-145): 38.8 µM (inactive) | GI50 (UACC-257): 20 µM (inactive) | GI50 (SK-OV-3): 24 µM (inactive) | GI50 (RPMI-8226): 5.42 µM (inactive) | GI50 (SF-539): 20.6 µM (inactive) | GI50 (UO-31): 36.3 µM (inactive) | GI50 (A549): 23.8 µM (inactive) | GI50 (SF-268): 31.1 µM (inactive) | GI50 (SR): 1.01 µM (active) | GI50 (LOX IMVI): 12.6 µM (inactive) | GI50 (OVCAR-8): 10.1 µM (inactive) | GI50 (NCI-H522): 10.4 µM (inactive) | GI50 (Hs-578T): 36.6 µM (inactive) | GI50 (MOLT-4): 28.2 µM (inactive) | GI50 (SK-MEL-28): 13.9 µM (inactive) | GI50 (HCT-15): 14.6 µM | GI50 (UACC-62): 18.8 µM (inactive) | GI50 (MCF7): 15.7 µM (inactive) | GI50 (SF-295): 19.9 µM (inactive) | GI50 (A498): 32.7 µM (inactive) | GI50 (OVCAR-3): 9.4 µM (inactive) | GI50 (M14): 17.8 µM (inactive) | GI50 (NCI-H226): 39.8 µM (inactive) | GI50 (NCI-H23): 21.6 µM (inactive) | GI50 (SN12C): 15.2 µM (inactive) | GI50 (EKVX): 29.3 µM (inactive) | GI50 (HL-60): 16.2 µM (inactive) | GI50 (SNB-19): 54.8 µM (inactive)

COC(=O)[C@H]1C=C[C@H](OC2OC(COC(C)=O)C(OC(C)=O)C(OC(C)=O)C2OC(C)=O)n2c(=O)n(-c3ccccc3)c(=O)n21 (stereo partly specified)
GI50 (786-0): 2.45 µM (inactive) | GI50 (U-251): 8.75 µM (inactive) | GI50 (NCI-H460): 2.92 µM (inactive) | GI50 (OVCAR-4): 2.87 µM (inactive) | GI50 (PC-3): 10.7 µM (inactive) | GI50 (COLO 205): 1.7 µM (inactive) | GI50 (HOP-92): 1.78 µM (inactive) | GI50 (IGROV-1): 4.98 µM (inactive) | GI50 (HCT-116): 2.96 µM (inactive) | GI50 (SW-620): 2.18 µM (inactive) | GI50 (CCRF-CEM): 2.25 µM (inactive) | GI50 (CAKI-1): 0.935 µM (active) | GI50 (SK-MEL-5): 2.12 µM (inactive) | GI50 (HOP-62): 8.55 µM (inactive) | GI50 (SK-MEL-2): 12.1 µM (inactive) | GI50 (T47D): 3.48 µM (inactive) | GI50 (SNB-75): 12.1 µM (inactive) | GI50 (ACHN): 1.66 µM (inactive) | GI50 (K562): 1.77 µM (inactive) | GI50 (HCC 2998): 2.23 µM (inactive) | GI50 (MDA-N): 4.68 µM (inactive) | GI50 (MDA-MB-231): 6.97 µM (inactive) | GI50 (MDA-MB-435): 4.38 µM (inactive) | GI50 (BT-549): 3.04 µM (inactive) | GI50 (KM12): 11 µM (inactive) | GI50 (OVCAR-5): 9.18 µM (inactive) | GI50 (HT-29): 2.61 µM (inactive) | GI50 (TK-10): 4.8 µM (inactive) | GI50 (NCI/ADR-RES): 6.07 µM (inactive) | GI50 (RXF 393): 1.82 µM (inactive) | GI50 (DU-145): 6.08 µM (inactive) | GI50 (UACC-257): 7.52 µM (inactive) | GI50 (SK-OV-3): 18.4 µM (inactive) | GI50 (RPMI-8226): 1.66 µM (inactive) | GI50 (SF-539): 2.09 µM (inactive) | GI50 (UO-31): 2.04 µM (inactive) | GI50 (A549): 17.4 µM (inactive) | GI50 (SF-268): 3.67 µM (inactive) | GI50 (SR): 2.03 µM (inactive) | GI50 (LOX IMVI): 1.84 µM (inactive) | GI50 (OVCAR-8): 5.78 µM (inactive) | GI50 (NCI-H522): 0.222 µM (active) | GI50 (Hs-578T): 2.38 µM (inactive) | GI50 (MOLT-4): 2.49 µM (inactive) | GI50 (SK-MEL-28): 2.49 µM (inactive) | GI50 (HCT-15): 1.41 µM | GI50 (UACC-62): 1.54 µM (inactive) | GI50 (MCF7): 2.42 µM (inactive) | GI50 (SF-295): 13.1 µM (inactive) | GI50 (A498): 4.97 µM (inactive) | GI50 (OVCAR-3): 2.91 µM (inactive) | GI50 (M14): 2.7 µM (inactive) | GI50 (NCI-H226): 7.06 µM (inactive) | GI50 (NCI-H23): 4.99 µM (inactive) | GI50 (SN12C): 6.52 µM (inactive) | GI50 (EKVX): 2.59 µM (inactive) | GI50 (HL-60): 0.406 µM (active) | GI50 (SNB-19): 16.7 µM (inactive)
